Assays:
[1] = Dynamic light scattering (DLS) of LNP preparations: size (diameter) and polydispersity; assay type: physicochemical; conditions: Table D; LNP formulation ratio 47.5:40:2.5:10, ABE mRNA + PCSK9 sgRNA 1:1
Description: A ratio of aqueous to organic solvent of approximately 2:1 or 3:1 was maintained during mixing using differential flow rates. After mixing, LNP preparations were collected, diluted in phosphate buffer saline (PBS) or Tris-buffered saline (TBS) (approximately 1:1 v/v). Further buffer exchange was conducted using dialysis in PBS or TBS at 4° C. for 4 to 24 hours against a 20 kDa filter. After this initial dialysis, each individual LNP preparation may be characterized via dynamic light scattering (DLS) to measure the size (e.g., diameter) and polydispersity. LNP preparations falling within specific diameter and polydispersity ranges were pooled, and further dialyzed against PBS or TBS at 4° C. for 1 to 4 hours against a 100 kDa dialysis cassette. After the second dialysis, LNP preparations were sterile filtered using 0.22 μm filter and stored at 4° C. for further use.
(§1) LNP preparations are formed by microfluidic mixing of the lipid and NA solutions using a Precision Nanosystems NanoAssemblr Ignite Instrument, according to the manufacturer's protocol. A 3:1 ratio of aqueous to organic solvent is maintained during mixing using differential flow rates. After mixing, LNP preparations are collected, diluted in PBS (approximately 2:1 v/v), and further buffer exchange is conducted using dialysis in PBS at 4° C. for 8 to 24 hours against a 20 kDa filter. After this initial dialysis, each individual LNP preparation is characterized via dynamic light scattering (DLS) to measure size and polydispersity. pKa of a subpopulation of LNP preparations is measured via TNS assay. After dialysis, LNP preparations are sterile filtered using 0.22 micron sterile filter and stored at 4° C. for further use. In some embodiments, LNP preparations may be concentrated using 100 kDa Amicon filters per manufacturer's protocol.
DLS-LNP preparation hydrodynamic diameter and polydispersity index (PDI) is measured using high throughput dynamic light scattering (DLS) (DynaPro plate reader II, Wyatt). LNP preparations are diluted 1×PBS to an appropriate concentration and analyzed.

[2] = Encapsulation efficiency of LNP preparations (unlysed and lysed LNPs); assay type: physicochemical; conditions: Table D; LNP formulation ratio 47.5:40:2.5:10, ABE mRNA + PCSK9 sgRNA 1:1
Description: Concentration of NA is determined by Qubit microRNA kit (for siRNA) or HS RNA kit (for mRNA) per manufacturer's instructions. Encapsulation efficiency is determined by measuring unlysed and lysed LNPs.

[3] = pKa of LNP preparations via TNS assay; assay type: physicochemical; conditions: Table D; LNP formulation ratio 47.5:40:2.5:10
Description: as §1

PCSK9 target site = experiment: In vivo base editing with LNP-delivered ABE mRNA and sgRNA targeting PCSK9; conditions: Balb/c mice, IV tail vein, 0.03 mg/kg total RNA, 4 days after dosing
Description: Lipid nanoparticle components are dissolved in 100% ethanol at specified lipid component molar ratios. mRNA encoding an adenine base editor and a chemically-modified sgRNA is dissolved at a mass ratio of 1:1 in 10 mM citrate, 100 mM NaCl, pH 4.0, resulting in a concentration of NA cargo of approximately 0.22 mg/mL. LNP preparations are formulated with molar ratios of either 50% Ionizable Lipid:38.5% Cholesterol:1.5% PEG2000-DMG: 10% DSPC or 47.5% Ionizable Lipid:40% Cholesterol:2.5% PEG2000-DMG: 10% DSPC both at a total lipid to NA molar ratio of 6.
as §1
Male Balb/C mice aged approximately 8-12 weeks are used in the experiments described herein. Each mouse is temporarily restrained, and LNP preparations are administered IV via tail vein injection. Age-matched mice are also used to administer vehicle (1×PBS) via tail vein injection as a control. […]
For base editing, mRNA encoding an adenine base editor (ABE) and a guide RNA (sgRNA) targeting PCSK9 at 1:1 (mass ratio) are coencapsulated in LNP preparations as described herein. […] Base editing is determined by performing targeted deep sequencing analysis at the PCSK9 target site using extracted genomic DNA.

Structure (SMILES) | Diameter (nm) [1] | EE (%) [2] | pKa [3] | Liver Editing A->G (%) (PCSK9 target site)
C=CC(C)(CCC=C(C)CCC=C(C)C)OC(=O)CCCCCC(=O)OCC(COC(=O)CCCCCC(=O)OC(C)(C=C)CCC=C(C)CCC=C(C)C)COC(=O)CCC(CCCCCC)OC(=O)NCCN1CCCC1 (stereo not drawn) [Example 13, 1-{2-[({7-oxo-7-[(3,7,11-trimethyldodeca-1,6,10-trien-3-yl)oxy]heptanoyl}oxy)methyl]-3-{[4-({[2-(pyrrolidin-1-yl)ethyl]carbamoyl}oxy)decanoyl]oxy}propyl}7-(3,7,11-trimethyldodeca-1,6,10-trien-3-yl) heptanedioate] | 73.3 nm | 96.1% | 6.72 | 1.2%
CCCCCCC(CCC(=O)OCC(COC(=O)CCCCCC(=O)OCC=C(C)CCC=C(C)CCC=C(C)C)COC(=O)CCCCCC(=O)OCC=C(C)CCC=C(C)CCC=C(C)C)OC(=O)NCCN1CCCC1 (stereo not drawn) [Example 14, 1-{2-[({7-oxo-7-[(3,7,11-trimethyldodeca-2,6,10-trien-1-yl)oxy]heptanoyl}oxy)methyl]-3-{[4-({[2-(pyrrolidin-1-yl)ethyl]carbamoyl}oxy)decanoyl]oxy}propyl}7-(3,7,11-trimethyldodeca-2,6,10-trien-1-yl) heptanedioate] | 77.15 nm | 97.7% | 6.78 | 23.6%
CCCCCCC(CCC(=O)OCC(COC(=O)CCCCCC(=O)OCC=C(C)CCCC(C)CCCC(C)CCCC(C)C)COC(=O)CCCCCC(=O)OCC=C(C)CCCC(C)CCCC(C)CCCC(C)C)OC(=O)NCCN1CCCC1 (stereo not drawn) [Example 15, 1-{2-[({7-oxo-7-[(3,7,11,15-tetramethylhexadec-2-en-1-yl)oxy]heptanoyl}oxy)methyl]-3-{[4-({[2-(pyrrolidin-1-yl)ethyl]carbamoyl}oxy)decanoyl]oxy}propyl}7-(3,7,11,15-tetramethylhexadec-2-en-1-yl) heptanedioate] | 74.1 nm | 98.5% | 6.32 | 15.7%

Source: patent publication US20260176252A1, “IONIZABLE LIPIDS WITH BRANCHED HEAD GROUPS” (Beam Therapeutics Inc., priority 2023, published 2026)
